Our source for the IC50 values is patent US8889704B2 (Array BioPharma Inc., priority 2011, dated 2014).

Holding throughout (type): biochemical
Assay [1] has as its target PIM-1 (Homo sapiens, UniProt P11309). The assay can be described thus: Enzyme PIM-1 Assay ([33P]ATP incorporation into PIM2tide, filter plate). The settings on record: averaged IC50; 35 μM ATP, 7.5 μM PIM2tide, 0.25 nM PIM-1, 60 min at 22° C. A digest of the protocol:
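Ten-point, 3-fold dilution series (10 μM top, 2% DMSO final) tested for inhibition of 33P transfer from 35 μM ATP to 7.5 μM PIM2tide by 0.25 nM PIM-1. Reaction 60 min, 22 °C, pH 7.4 MOPS/MgCl2 buffer; phosphocellulose capture, scintillation counting, IC50 where fitted POC equals 50.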

Assay [2] has as its target recombinant rat PIM-3 (Rattus norvegicus, UniProt O70444). The assay can be described thus: PIM-3 Assay (as Example A). The settings on record: averaged IC50; 30 μM ATP, 3.75 μM PIM2tide, 0.5 nM PIM-3. A digest of the protocol: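 33P incorporation from 30 μM [γ-33P]ATP into 3.75 μM PIM2tide by 0.5 nM rat PIM-3, 60 min at 22 °C in pH 7.4 MOPS buffer, read by P81 filter capture and scintillation counting. Compounds tested in 3-fold dilutions up to 10 μM final, 2% DMSO; percent-of-control data fitted by 4-parameter logistic for IC50.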

The target of assay [3] is T1, GST-tagged recombinant full-length human Pim-2 (Homo sapiens, UniProt Q9P1W9).
T1 construct: GST-tagged recombinant full-length human Pim-2; GST
The assay can be described thus: PIM-2 Assay (as Example A). The settings on record: averaged IC50; 4 μM ATP, 1.0 μM PIM2tide, 1.5 nM Pim-2. The method in brief: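 IC50 was derived by 4-parameter logistic fitting of percent-of-control data over a 10-point, 3-fold series (highest 10 μM, 2% DMSO). Reactions held 1.5 nM GST-Pim-2 (full-length, human), 4 μM [γ-33P]ATP and 1.0 μM PIM2tide for 60 min at 22 °C, pH 7.4; 33P-peptide captured on P81 filters.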

Where a name gives a salt, the structure may show the parent alone.

Broadly, the IC50 is the concentration that gives 50% inhibition.

T1 sequence (Q9P1W9 whole entry): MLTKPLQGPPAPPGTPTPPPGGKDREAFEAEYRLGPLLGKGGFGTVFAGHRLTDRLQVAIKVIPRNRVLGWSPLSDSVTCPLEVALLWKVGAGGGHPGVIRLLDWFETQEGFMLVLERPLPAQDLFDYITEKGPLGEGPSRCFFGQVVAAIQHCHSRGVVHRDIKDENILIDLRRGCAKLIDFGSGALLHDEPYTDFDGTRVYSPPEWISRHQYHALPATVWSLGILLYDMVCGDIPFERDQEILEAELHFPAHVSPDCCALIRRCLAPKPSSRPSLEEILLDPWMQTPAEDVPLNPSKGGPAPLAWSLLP
PIM-1, sequence (P11309 whole entry, species assumed): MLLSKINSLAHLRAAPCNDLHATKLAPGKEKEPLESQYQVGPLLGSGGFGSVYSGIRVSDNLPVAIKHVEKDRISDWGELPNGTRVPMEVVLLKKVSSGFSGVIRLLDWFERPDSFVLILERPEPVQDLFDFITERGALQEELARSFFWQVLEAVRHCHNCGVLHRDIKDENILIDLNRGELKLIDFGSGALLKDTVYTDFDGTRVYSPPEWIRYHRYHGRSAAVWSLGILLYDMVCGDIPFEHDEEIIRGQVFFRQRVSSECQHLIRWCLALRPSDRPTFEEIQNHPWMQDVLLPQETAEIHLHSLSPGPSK

In the case of `Cn1cc(-c2cc3nc(-c4nnc5ccc([C@@H](N6CC[C@H](N)C6)C(F)(F)F)cn45)ccc3cc2F)cn1` [Example 173, (S)-1-((R)-2,2,2-trifluoro-1-(3-(6-fluoro-7-(1-methyl-1H-pyrazol-4-yl)quinolin-2-yl)-[1,2,4]triazolo[4,3-a]pyridin-6-yl)ethyl)pyrrolidin-3-amine tri-hydrochloride], the IC50 in assay [1] was 0.13 nM; in assay [2] it was 0.4 nM; in assay [3], greater than 100 nM.
The corresponding values for `COCCOc1ccc2ccc(-c3nnc4ccc([C@@H](N5CC[C@H](N)C5)C(F)(F)F)cn34)nc2c1Cl` [Example 174, (S)-1-((R)-1-(3-(8-chloro-7-(2-methoxyethoxy)quinolin-2-yl)-[1,2,4]triazolo[4,3-a]pyridin-6-yl)-2,2,2-trifluoroethyl)pyrrolidin-3-amine hydrochloride] are 1.1 nM, 0.8 nM and greater than 100 nM.
For the molecule `COc1ccc2ccc(-c3nnc4ccc([C@@H](N5CC[C@H](N)C5)C(F)(F)F)cn34)nc2c1Cl` [Example 175, (S)-1-((R)-1-(3-(8-chloro-7-methoxyquinolin-2-yl)-[1,2,4]triazolo[4,3-a]pyridin-6-yl)-2,2,2-trifluoroethyl)pyrrolidin-3-amine hydrochloride], the results for the IC50 in assay [1], in assay [2] and in assay [3] were 0.7 nM, 1.4 nM and greater than 100 nM, respectively.
The corresponding values for `N[C@H]1CCN([C@H](c2ccc3nnc(-c4ccc5cc(F)c(C6CC6)cc5n4)n3c2)C(F)(F)F)C1` [Example 176, (S)-1-((R)-1-(3-(7-cyclopropyl-6-fluoroquinolin-2-yl)-[1,2,4]triazolo[4,3-a]pyridin-6-yl)-2,2,2-trifluoroethyl)pyrrolidin-3-amine dihydrochloride] are 0.17 nM, 2.7 nM and 92 nM.
As for `N[C@H]1CCN([C@H](c2ccc3nnc(-c4ccc5cc(F)cc(C6CC6)c5n4)n3c2)C(F)(F)F)C1` [Example 177, (S)-1-((R)-1-(3-(8-cyclopropyl-6-fluoroquinolin-2-yl)-[1,2,4]triazolo[4,3-a]pyridin-6-yl)-2,2,2-trifluoroethyl)pyrrolidin-3-amine dihydrochloride], the IC50 in assay [1] is 0.31 nM; in assay [2], 1.7 nM; in assay [3], greater than 100 nM.
The corresponding values for `COc1c(F)cc2ccc(-c3nnc4ccc([C@@H](N5CC[C@H](N)C5)C(F)(F)F)cn34)nc2c1F` [Example 178, (S)-1-((R)-1-(3-(6,8-difluoro-7-methoxyquinolin-2-yl)-[1,2,4]triazolo[4,3-a]pyridin-6-yl)-2,2,2-trifluoroethyl)pyrrolidin-3-amine dihydrochloride] are 1.81 nM, 19 nM and greater than 100 nM.
The corresponding values for `COCCOc1ccc2ccc(-c3nnc4ccc([C@@H](N5CC[C@H](N)C5)C(F)(F)F)cn34)nc2c1F` [Example 179, (S)-1-((R)-2,2,2-trifluoro-1-(3-(8-fluoro-7-(2-methoxyethoxy)quinolin-2-yl)-[1,2,4]triazolo[4,3-a]pyridin-6-yl)ethyl)pyrrolidin-3-amine dihydrochloride] are 2.44 nM, 4.1 nM and greater than 100 nM.
The corresponding values for `COC[C@@H](C)Oc1ccc2ccc(-c3nnc4ccc([C@@H](N5CC[C@H](N)C5)C(F)(F)F)cn34)nc2c1F` [Example 180, (S)-1-((R)-2,2,2-trifluoro-1-(3-(8-fluoro-7-((R)-1-methoxypropan-2-yloxy)quinolin-2-yl)-[1,2,4]triazolo[4,3-a]pyridin-6-yl)ethyl)pyrrolidin-3-amine dihydrochloride] are 3.08 nM, 13 nM and greater than 100 nM.
Regarding `N[C@@H]1CN([C@H](c2ccc3nnc(-c4ccc5cc(F)cc(C6CC6)c5n4)n3c2)C(F)(F)F)C[C@H]1O` [Example 181, (3R,4R)-4-amino-1-((R)-1-(3-(8-cyclopropyl-6-fluoroquinolin-2-yl)-[1,2,4]triazolo[4,3-a]pyridin-6-yl)-2,2,2-trifluoroethyl)pyrrolidin-3-ol dihydrochloride], the results for the IC50 in assay [1], in assay [2] and in assay [3] were 0.41 nM, 2.7 nM and 96 nM, respectively.
In the same order, the values of `N[C@H]1CCN([C@H](c2ccc3nnc(-c4ccc5cccc(Cl)c5n4)n3c2)C(F)(F)F)C1` [Example 182, (S)-1-((R)-2,2,2-trifluoro-1-(3-(8-chloroquinolin-2-yl)-[1,2,4]triazolo[4,3-a]pyridin-6-yl)ethyl)pyrrolidin-3-amine dihydrochloride] are 0.75 nM, 4.1 nM and greater than 100 nM.
In the same order, the values of `Cc1cccc2ccc(-c3nnc4ccc([C@@H](N5CC[C@H](N)C5)C(F)(F)F)cn34)nc12` [Example 183, (S)-1-((R)-2,2,2-trifluoro-1-(3-(8-methylquinolin-2-yl)-[1,2,4]triazolo[4,3-a]pyridin-6-yl)ethyl)pyrrolidin-3-amine dihydrochloride] are 0.27 nM, 1.2 nM and greater than 100 nM.
In the same order, the values of `Cc1cc(F)cc2ccc(-c3nnc4ccc([C@@H](N5CC[C@H](N)C5)C(F)(F)F)cn34)nc12` [Example 184, (S)-1-((R)-2,2,2-trifluoro-1-(3-(6-fluoro-8-methylquinolin-2-yl)-[1,2,4]triazolo[4,3-a]pyridin-6-yl)ethyl)pyrrolidin-3-amine dihydrochloride] are 0.41 nM, 1.5 nM and greater than 100 nM.
As to `COCc1cccc2ccc(-c3nnc4ccc([C@@H](N5CC[C@H](N)C5)C(F)(F)F)cn34)nc12` [Example 185, (S)-1-((R)-2,2,2-trifluoro-1-(3-(8-(methoxymethyl)quinolin-2-yl)-[1,2,4]triazolo[4,3-a]pyridin-6-yl)ethyl)pyrrolidin-3-amine dihydrochloride], the IC50 is 0.37 nM in assay [1], 1 nM in assay [2] and greater than 100 nM in assay [3].
On to `C[C@H](CO)Oc1cccc2ccc(-c3nnc4ccc([C@@H](N5CC[C@H](N)C5)C(F)(F)F)cn34)nc12` [Example 186, (R)-2-(2-(6-((R)-1-((S)-3-aminopyrrolidin-1-yl)-2,2,2-trifluoroethyl)-[1,2,4]triazolo[4,3-a]pyridin-3-yl)quinolin-8-yloxy)propan-1-ol dihydrochloride], for which the IC50 in assay [1] turned out to be 0.16 nM; in assay [2], 0.4 nM; in assay [3] it was 67 nM.
Turning to `C[C@H](O)COc1cccc2ccc(-c3nnc4ccc([C@@H](N5CC[C@H](N)C5)C(F)(F)F)cn34)nc12` [Example 187, (S)-1-(2-(6-((R)-1-((S)-3-aminopyrrolidin-1-yl)-2,2,2-trifluoroethyl)-[1,2,4]triazolo[4,3-a]pyridin-3-yl)quinolin-8-yloxy)propan-2-ol dihydrochloride], the results for the IC50 in assay [1], in assay [2] and in assay [3] were 0.37 nM, 0.9 nM and greater than 100 nM, respectively.
Regarding `CC(C)Oc1cccc2ccc(-c3nnc4ccc([C@@H](N5CC[C@](N)(CO)C5)C(F)(F)F)cn34)nc12` [Example 188, ((R)-3-amino-1-((R)-2,2,2-trifluoro-1-(3-(8-isopropoxyquinolin-2-yl)-[1,2,4]triazolo[4,3-a]pyridin-6-yl)ethyl)pyrrolidin-3-yl)methanol dihydrochloride], the IC50 in assay [1] stood at 0.3 nM; in assay [2], 1 nM; in assay [3], 111 nM.
In the same order, the values of `CC(C)(C)c1cccc2ccc(-c3nnc4ccc([C@@H](N5CC[C@](N)(CO)C5)C(F)(F)F)cn34)nc12` [Example 189, ((R)-3-amino-1-((R)-1-(3-(8-tert-butylquinolin-2-yl)-[1,2,4]triazolo[4,3-a]pyridin-6-yl)-2,2,2-trifluoroethyl)pyrrolidin-3-yl)methanol dihydrochloride] are 0.57 nM, 1.5 nM and 85 nM.
In the same order, the values of `Cc1cnn(-c2ccc3ccc(-c4nnc5ccc([C@@H](N6CC[C@H](N)C6)C(F)(F)F)cn45)nc3c2C)c1` [Example 190, (S)-1-((R)-2,2,2-trifluoro-1-(3-(8-methyl-7-(4-methyl-1H-pyrazol-1-yl)quinolin-2-yl)-[1,2,4]triazolo[4,3-a]pyridin-6-yl)ethyl)pyrrolidin-3-amine dihydrochloride] are 1.03 nM, 1 nM and greater than 100 nM.
The corresponding values for `Cc1c(-c2cnn(C)c2)ccc2ccc(-c3nnc4ccc([C@@H](N5CC[C@H](N)C5)C(F)(F)F)cn34)nc12` [Example 191, (S)-1-((R)-2,2,2-trifluoro-1-(3-(8-methyl-7-(1-methyl-1H-pyrazol-4-yl)quinolin-2-yl)-[1,2,4]triazolo[4,3-a]pyridin-6-yl)ethyl)pyrrolidin-3-amine dihydrochloride] are 0.2 nM, 0.2 nM and 74 nM.
